Reference: ChEMBL document CHEMBL1138574, “Regioselective synthesis and stereochemical structure of anti-tumor active dispiro[3H-indole-3,2'-pyrrolidine-3',3''-piperidine]-2(1H),4''-diones” (2009)

Key:
Assay type in all cases: functional
SN12C = assay: Antitumor activity against human SN12C cells assessed as cell growth at 10 uM after 48 hrs by sulforhodamine B assay; settings: read-out: Activity
HOP-92 = assay: Antitumor activity against human HOP92 cells assessed as cell growth at 10 uM after 48 hrs by sulforhodamine B assay; settings: HOP-92, 48 h, read-out: Activity
NCI-H460 = assay: Antitumor activity against human NCI-H460 cells assessed as cell growth at 10 uM after 48 hrs by sulforhodamine B assay; settings: NCI-H460, 48 h, read-out: Activity
KM12 = assay: Antitumor activity against human KM12 cells assessed as cell growth at 10 uM after 48 hrs by sulforhodamine B assay; settings: KM12, 48 h, read-out: Activity
ACHN = assay: Antitumor activity against human ACHN cells assessed as cell growth at 10 uM after 48 hrs by sulforhodamine B assay; settings: read-out: Activity
MOLT-4 = assay: Antitumor activity against human MOLT4 cells assessed as cell growth at 10 uM after 48 hrs by sulforhodamine B assay; settings: MOLT-4, 48 h, read-out: Activity
A549 = assay: Antitumor activity against human A549 cells assessed as cell growth at 10 uM after 48 hrs by sulforhodamine B assay; settings: A549, 48 h, read-out: Activity
M14 = assay: Antitumor activity against human M14 cells assessed as cell growth at 10 uM after 48 hrs by sulforhodamine B assay; settings: M14, 48 h, read-out: Activity
Malme-3M = assay: Antitumor activity against human MALME-3M cells assessed as cell growth at 10 uM after 48 hrs by sulforhodamine B assay; settings: read-out: Activity
Rattus norvegicus [1] = assay: Antiinflammatory activity in Wister albino rat assessed as inhibition of carrageenan-induced paw oedema at 50 mg/kg, ip administered 1 hr before carrageenan challenge measured after 4 hrs of induction of inflammation relative to control; settings: route intraperitoneal
HCT-15 = assay: Antitumor activity against human HCT15 cells assessed as cell growth at 10 uM after 48 hrs by sulforhodamine B assay; settings: HCT-15, 48 h, read-out: Activity
[2] = Antitumor activity against human […] cells assessed as cell growth at 10 uM after 48 hrs by sulforhodamine B assay; settings: read-out: Activity
SNB-75 = assay: Antitumor activity against human SNB75 cells assessed as cell growth at 10 uM after 48 hrs by sulforhodamine B assay; settings: SNB-75, 48 h, read-out: Activity
UO-31 = assay: Antitumor activity against human UO31 cells assessed as cell growth at 10 uM after 48 hrs by sulforhodamine B assay; settings: UO-31, 48 h, read-out: Activity
Rattus norvegicus [3] = assay: Antiinflammatory activity in Wister albino rat assessed as inhibition of carrageenan-induced paw oedema at 50 mg/kg, ip administered 1 hr before carrageenan challenge measured after 2 hrs of induction of inflammation relative to control; settings: route intraperitoneal
UACC-62 = assay: Antitumor activity against human UACC62 cells assessed as cell growth at 10 uM after 48 hrs by sulforhodamine B assay; settings: UACC-62, 48 h, read-out: Activity
OVCAR-8 = assay: Antitumor activity against human OVCAR8 cells assessed as cell growth at 10 uM after 48 hrs by sulforhodamine B assay; settings: OVCAR-8, 48 h, read-out: Activity
NCI-H23 = assay: Antitumor activity against human NCI-H23 cells assessed as cell growth at 10 uM after 48 hrs by sulforhodamine B assay; settings: NCI-H23, 48 h, read-out: Activity
SK-MEL-28 = assay: Antitumor activity against human SK-MEL-28 cells assessed as cell growth at 10 uM after 48 hrs by sulforhodamine B assay; settings: SK-MEL-28, 48 h, read-out: Activity
BT-549 = assay: Antitumor activity against human BT549 cells assessed as cell growth at 10 uM after 48 hrs by sulforhodamine B assay; settings: BT-549, 48 h, read-out: Activity
PC-3 = assay: Antitumor activity against human PC3 cells assessed as cell growth at 10 uM after 48 hrs by sulforhodamine B assay; settings: PC-3, 48 h, read-out: Activity
MDA-MB-231 = assay: Antitumor activity against human MDA-MB-231 cells assessed as cell growth at 10 uM after 48 hrs by sulforhodamine B assay; settings: MDA-MB-231, 48 h, read-out: Activity
786-0 = assay: Antitumor activity against human 786-0 cells assessed as cell growth at 10 uM after 48 hrs by sulforhodamine B assay; settings: 786-0, 48 h, read-out: Activity
SR = assay: Antitumor activity against human SR cells assessed as cell growth at 10 uM after 48 hrs by sulforhodamine B assay; settings: read-out: Activity
Rattus norvegicus [4] = assay: Antiinflammatory activity in Wister albino rat assessed as inhibition of carrageenan-induced paw oedema at 50 mg/kg, ip administered 1 hr before carrageenan challenge measured after 1 hr of induction of inflammation relative to control; settings: route intraperitoneal
MDA-MB-468 = assay: Antitumor activity against human MDA-MB-468 cells assessed as cell growth at 10 uM after 48 hrs by sulforhodamine B assay; settings: MDA-MB-468, 48 h, read-out: Activity
Rattus norvegicus [5] = assay: Antiinflammatory activity in Wister albino rat assessed as inhibition of carrageenan-induced paw oedema at 50 mg/kg, ip administered 1 hr before carrageenan challenge measured after 4 hrs of induction of inflammation relative to indomethacin; settings: route intraperitoneal
EKVX = assay: Antitumor activity against human EKVX cells assessed as cell growth at 10 uM after 48 hrs by sulforhodamine B assay; settings: read-out: Activity
U-251 = assay: Antitumor activity against human U251 cells assessed as cell growth at 10 uM after 48 hrs by sulforhodamine B assay; settings: U-251, 48 h, read-out: Activity
DU-145 = assay: Antitumor activity against human DU145 cells assessed as cell growth at 10 uM after 48 hrs by sulforhodamine B assay; settings: DU-145, 48 h, read-out: Activity
Rattus norvegicus [6] = assay: Antiinflammatory activity in Wister albino rat assessed as inhibition of carrageenan-induced paw oedema at 50 mg/kg, ip administered 1 hr before carrageenan challenge measured after 3 hrs of induction of inflammation relative to control; settings: route intraperitoneal
COLO 205 = assay: Antitumor activity against human COLO205 cells assessed as cell growth at 10 uM after 48 hrs by sulforhodamine B assay; settings: COLO 205, 48 h, read-out: Activity
HCT-116 = assay: Antitumor activity against human HCT116 cells assessed as cell growth at 10 uM after 48 hrs by sulforhodamine B assay; settings: HCT-116, 48 h, read-out: Activity
NCI-H322M = assay: Antitumor activity against human NCI-H322M cells assessed as cell growth at 10 uM after 48 hrs by sulforhodamine B assay; settings: read-out: Activity
IGROV-1 = assay: Antitumor activity against human IGROV1 cells assessed as cell growth at 10 uM after 48 hrs by sulforhodamine B assay; settings: IGROV-1, 48 h, read-out: Activity
HT-29 = assay: Antitumor activity against human HT-29 cells assessed as cell growth at 10 uM after 48 hrs by sulforhodamine B assay; settings: HT-29, 48 h, read-out: Activity

| SMILES | growth at 10 µM (SN12C) [%] | growth at 10 µM (HOP-92) [%] | growth at 10 µM (NCI-H460) [%] | growth at 10 µM (KM12) [%] | growth at 10 µM (ACHN) [%] | growth at 10 µM (MOLT-4) [%] | growth at 10 µM (A549) [%] | growth at 10 µM (M14) [%] | growth at 10 µM (Malme-3M) [%] | inhibition in vivo at 50 mg/kg (Rattus norvegicus [1]) [%] | growth at 10 µM (HCT-15) [%] | growth at 10 µM [2] [%] | growth at 10 µM (SNB-75) [%] | growth at 10 µM (UO-31) [%] | inhibition in vivo at 50 mg/kg (Rattus norvegicus [3]) [%] | growth at 10 µM (UACC-62) [%] | growth at 10 µM (OVCAR-8) [%] | growth at 10 µM (NCI-H23) [%] | growth at 10 µM (SK-MEL-28) [%] | growth at 10 µM (BT-549) [%] | other results |
| --- | --- | --- | --- | --- | --- | --- | --- | --- | --- | --- | --- | --- | --- | --- | --- | --- | --- | --- | --- | --- | --- |
| CN1C/C(=C\c2ccc(-c3cccs3)cc2)C(=O)[C@]2(C1)[C@@H](c1ccc(-c3cccs3)cc1)CN(C)[C@@]21C(=O)N(C)c2ccccc21 | 64.3 | 41.1 | 52.1 | 45.2 | 56.5 | 27.2 | 58 | 58.5 | 76.4 | 69.8 | 62.1 | 10.6 | 64.5 | 45.4 | 68.3 | 47.6 | 65.7 | 26.1 | 80 | 79.7 | growth at 10 µM (PC-3): 17.8%; growth at 10 µM (MDA-MB-231): 52.4%; growth at 10 µM (786-0): 65.8%; growth at 10 µM (SR): 30.5%; inhibition in vivo at 50 mg/kg (Rattus norvegicus [4]): 84.7%; growth at 10 µM (MDA-MB-468): 33.4%; inhibition in vivo at 50 mg/kg (Rattus norvegicus [5]): 124%; growth at 10 µM (EKVX): 47.1%; growth at 10 µM (U-251): 62.8%; growth at 10 µM (DU-145): 67.4%; inhibition in vivo at 50 mg/kg (Rattus norvegicus [6]): 73.9%; growth at 10 µM (COLO 205): 69%; growth at 10 µM (HCT-116): 30.6%; growth at 10 µM (NCI-H322M): 75%; growth at 10 µM (IGROV-1): 81.4%; growth at 10 µM (HT-29): 56.1% |
| COc1ccc(/C=C2\CN(C)C[C@@]3(C2=O)[C@@H](c2ccccc2)CN(C)[C@@]32C(=O)Nc3ccccc32)cc1 | 58.4 | 46.7 | 52.3 | 37.7 | 49.1 | 17.2 | 44.4 | 55.6 | 58.7 | 78.7 | 50.8 | 20.7 | 59.4 | 40.4 | 76.4 | 47.8 | 52.4 | 50.4 | 76.3 | 56.3 | growth at 10 µM (PC-3): 21%; growth at 10 µM (MDA-MB-231): 59.4%; growth at 10 µM (786-0): 57.2%; growth at 10 µM (SR): 52.3%; inhibition in vivo at 50 mg/kg (Rattus norvegicus [4]): 80.1%; growth at 10 µM (MDA-MB-468): 58.9%; inhibition in vivo at 50 mg/kg (Rattus norvegicus [5]): 139%; growth at 10 µM (EKVX): 64.2%; growth at 10 µM (U-251): 52.1%; growth at 10 µM (DU-145): 70.3%; inhibition in vivo at 50 mg/kg (Rattus norvegicus [6]): 76.5%; growth at 10 µM (COLO 205): 67.4%; growth at 10 µM (HCT-116): 26.8%; growth at 10 µM (NCI-H322M): 79.7%; growth at 10 µM (IGROV-1): 79.4%; growth at 10 µM (HT-29): 58.1% |
| CN1C/C(=C\c2ccc(Cl)cc2)C(=O)[C@]2(C1)[C@@H](c1ccc(Cl)cc1)CN(C)[C@@]21C(=O)N(C)c2ccccc21 | 62.9 | 61.6 | 71.5 | 78.7 | 57.5 | 43.2 | 70 | 77.8 | 73.5 | 45.7 | 76.2 | 38 | 65.2 | 56.6 | 62.2 | 59.9 | 79.5 | 33.9 | 104 | 80.3 | growth at 10 µM (PC-3): 32.5%; growth at 10 µM (MDA-MB-231): 70.4%; growth at 10 µM (786-0): 73.9%; growth at 10 µM (SR): 70.3%; inhibition in vivo at 50 mg/kg (Rattus norvegicus [4]): 82.3%; growth at 10 µM (MDA-MB-468): 66.9%; inhibition in vivo at 50 mg/kg (Rattus norvegicus [5]): 80.9%; growth at 10 µM (EKVX): 42.1%; growth at 10 µM (U-251): 68.6%; growth at 10 µM (DU-145): 88.4%; inhibition in vivo at 50 mg/kg (Rattus norvegicus [6]): 44.5%; growth at 10 µM (COLO 205): 99.6%; growth at 10 µM (HCT-116): 29.9%; growth at 10 µM (NCI-H322M): 79.1%; growth at 10 µM (IGROV-1): 92.1%; growth at 10 µM (HT-29): 68.4% |
